We go through two molecules from patent US20040082605A1, “Use” (priority 2001, published 2004).

This assay has as its system gastric (corpus) ulcers induced by indomethacin. The assay can be described thus: Indomethacin induced gastric ulcer in rats, stomach examined macroscopically. The note with it: male rats; for Median number of gastric (corpus) ulcers induced by indomethacin: Ulcer furrows / Median number of gastric (corpus) ulcers induced by indomethacin: Pinhead ulcers: stomach removed 5 h after indomethacin; for Median number of gastric (corpus) ulcers induced by indomethacin: Ulcer furrows: furrows >3 mm; for Median number of gastric (corpus) ulcers induced by indomethacin: Pinhead ulcers: pinhead = diameter 3 mm or less; for Effect against gastric ulcers induced by indomethacin: oral dosing 1 h before indomethacin 20 mg/kg orally, result in words. The assay is classed as in vivo. As to the method: Groups of […] male rats were given oral doses of vehicle, 2,3-dimethyl-8-(2-ethyl-6-methylbenzylamino)-imidazo[1,2-a]pyridine-6-carboxamide(0.3, 1, 3 and 10 μmol/kg) or ranitidine (10 μmol/kg). Indomethacin 20 mg/kg, orally) was given 1 h after dosing. Stomach was removed 5 h after indomethacin and examined macroscopically Indomethacin induced ulcers in the corpus only, rumen and anthrum were unaffected. Ulcers in the corpus were classified as pinhead (diameter 3 mm or less) or furrows (>3 mm).

The mark [1] stands for this setting: oral dose 0.3 μmol/kg 1 h before indomethacin 20 mg/kg orally.
Setting [2] is: oral dose 1 μmol/kg 1 h before indomethacin 20 mg/kg orally.
[3] abbreviates: oral dose 3 μmol/kg 1 h before indomethacin 20 mg/kg orally.
The mark [4] stands for this setting: oral dose 10 μmol/kg 1 h before indomethacin 20 mg/kg orally.
The mark [5] stands for this setting: oral doses 0.3, 1, 3 and 10 μmol/kg.

On to `CCc1cccc(C)c1CNc1cc(C(N)=O)cn2c(C)c(C)nc12` [2,3-dimethyl-8-(2-ethyl-6-methylbenzylamino)-imidazo[1,2-a]pyridine-6-carboxamide], for which the “Effect against gastric ulcers induced by indomethacin” value is on record as “protective effect”. Further, under setting [1], the “Median number of gastric (corpus) ulcers induced by indomethacin: Ulcer furrows” value (“Median number of gastric … Ulcer furrows” for short) amounted to 8 and the “Median number of gastric (corpus) ulcers induced by indomethacin: Pinhead ulcers” value (shortened to “Median number of gastric … Pinhead ulcers”) was 5. Also, under setting [2], the “Median number of gastric … Ulcer furrows” value amounted to 9 and the “Median number of gastric … Pinhead ulcers” value came to 5. Also, under setting [3], the “Median number of gastric … Ulcer furrows” value is listed as 1 and the “Median number of gastric … Pinhead ulcers” value was 2. Under setting [4], the “Median number of gastric … Ulcer furrows” value stood at 0 and the “Median number of gastric … Pinhead ulcers” value is 0. Also, under setting [5], the “Dose at which the decrease in pinhead ulcers and ulcer furrows was maximal” value worked out at 10 µmol/kg; the “Dose from which the decrease in pinhead ulcers and ulcer furrows was statistically significant” value was determined as 3 µmol/kg.
For `CNC(=C[N+](=O)[O-])NCCSCc1ccc(CN(C)C)o1` [Ranitidine, ranitidine, reference compound], the “Effect against gastric ulcers induced by indomethacin” value is given as “no effect”. For the same molecule, under setting [4], the “Median number of gastric … Ulcer furrows” value worked out at 11 and the “Median number of gastric … Pinhead ulcers” value amounted to 7.
